Values of other authors in patent US7402581B2, “Azetidine compounds” (Albireo AB, priority 2003, dated 2008).

Biological target: T1, Human Neurokinin-2 (NK2) Receptor (Homo sapiens, UniProt P21452)
T1 sequence (P21452 1-398): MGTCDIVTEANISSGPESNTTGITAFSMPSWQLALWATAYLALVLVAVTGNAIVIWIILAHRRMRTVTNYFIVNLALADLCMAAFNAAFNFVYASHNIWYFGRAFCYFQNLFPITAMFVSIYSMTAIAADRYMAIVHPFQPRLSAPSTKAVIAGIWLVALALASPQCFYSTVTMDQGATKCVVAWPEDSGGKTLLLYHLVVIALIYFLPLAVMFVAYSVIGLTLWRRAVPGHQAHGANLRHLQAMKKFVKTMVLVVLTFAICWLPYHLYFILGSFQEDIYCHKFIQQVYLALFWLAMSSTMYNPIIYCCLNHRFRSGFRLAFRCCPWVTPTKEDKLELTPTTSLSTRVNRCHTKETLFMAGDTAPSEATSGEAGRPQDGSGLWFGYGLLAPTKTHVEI
Conditions: reported in Bioorganic & Medicinal Chemistry Letters 2003

For `CN(CC(CCN1CC(N2CCOCC2)C1)c1ccc(Cl)c(Cl)c1)C(=O)c1ccccc1` (stereo not shown) [N-[2-(3,4-dichlorophenyl)-4-(3-morpholin-4-ylazetidin-1-yl)butyl]-N-methylbenzamide], the “functional NK2 receptor antagonistic properties” value is listed as “functional NK2 receptor antagonistic properties”.
